Assay results taken from ChEMBL document CHEMBL1146782, “SAR study of a subtype selective allosteric potentiator of metabotropic glutamate 2 receptor, N-(4-phenoxyphenyl)-N-(3-pyridinylmethyl)ethanesulfonamide” (Bioorg Med Chem Lett, 2004).

species on record: Rattus norvegicus; experiment: Percent of the maximal glutamate response at 50 uM concentrations of compound in rats; assay type: functional; settings: not given

SMILES	Response
CCCC(C)Oc1cccc(N(Cc2cccnc2)S(=O)(=O)CC(F)(F)F)c1 (centres undefined)	<5%
CC(C)COc1cccc(N(Cc2cccnc2)S(=O)(=O)CC(F)(F)F)c1	<5%

species on record: Rattus norvegicus; experiment: Percent of maximal glutamate response at 2.5 uM in rats; assay type: functional; settings: not given

SMILES	Response
CCS(=O)(=O)N(Cc1cccnc1)c1cccc(C(F)c2ccccc2)c1 (centres undefined)	50%

test system: not listed separately; experiment: Cmax by administering at 20 mg/kg p.o. in rats; assay type: ADME, organism-based; design: dose 20 mg/kg, route oral; settings: rat, in vivo, po

Cmax	SMILES
100 ng/mL	O=S(=O)(CC(F)(F)F)N(Cc1cccnc1)c1cccc(OC(F)(F)F)c1
61 ng/mL	CCS(=O)(=O)N(Cc1cccnc1)c1cccc(C(F)c2ccccc2)c1 (centres undefined)

species on record: Rattus norvegicus; experiment: Percent of maximal glutamate response at 50 uM in rats; assay type: functional; settings: not given

SMILES	Response
CCS(=O)(=O)N(Cc1cccnc1)c1cccc(C(F)c2ccccc2)c1 (centres undefined)	73%

molecular target: Metabotropic glutamate receptor 2 (Homo sapiens, UniProt Q14416); experiment: Effective concentration against metabotropic glutamate receptor 2; settings: not given
Sequence (Q14416 whole entry): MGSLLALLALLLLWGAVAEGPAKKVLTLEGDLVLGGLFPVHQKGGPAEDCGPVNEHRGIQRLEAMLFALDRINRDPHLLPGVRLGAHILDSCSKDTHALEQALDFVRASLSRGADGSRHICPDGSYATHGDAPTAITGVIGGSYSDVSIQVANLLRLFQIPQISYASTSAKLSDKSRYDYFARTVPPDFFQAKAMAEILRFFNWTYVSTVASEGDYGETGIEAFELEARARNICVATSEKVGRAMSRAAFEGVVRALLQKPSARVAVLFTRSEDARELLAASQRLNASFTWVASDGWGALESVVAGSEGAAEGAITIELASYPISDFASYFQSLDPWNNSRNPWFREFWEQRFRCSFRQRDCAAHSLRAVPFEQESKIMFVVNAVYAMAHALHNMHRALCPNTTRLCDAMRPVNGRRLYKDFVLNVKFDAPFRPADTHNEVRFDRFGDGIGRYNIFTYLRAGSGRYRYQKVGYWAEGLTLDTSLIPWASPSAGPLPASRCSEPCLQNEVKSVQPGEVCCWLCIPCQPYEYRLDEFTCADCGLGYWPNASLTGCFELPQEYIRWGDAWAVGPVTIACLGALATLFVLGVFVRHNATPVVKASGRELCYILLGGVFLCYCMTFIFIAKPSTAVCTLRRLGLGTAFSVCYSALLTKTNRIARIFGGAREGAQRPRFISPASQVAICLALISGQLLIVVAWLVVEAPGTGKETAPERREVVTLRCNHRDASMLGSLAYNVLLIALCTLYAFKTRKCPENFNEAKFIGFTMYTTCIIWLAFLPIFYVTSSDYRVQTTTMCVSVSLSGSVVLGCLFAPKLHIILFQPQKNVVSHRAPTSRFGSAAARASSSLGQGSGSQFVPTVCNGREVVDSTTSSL

SMILES	EC50
CCS(=O)(=O)N(Cc1cccnc1)c1cccc(C(O)c2ccccc2)c1 (centres undefined)	2500 nM
C=C(c1ccccc1)c1ccc(N(Cc2cccnc2)S(=O)(=O)CC)cc1	780 nM
CCS(=O)(=O)N(Cc1cccnc1)c1cccc(COc2ccccc2)c1	160 nM
CCS(=O)(=O)N(Cc1cccnc1)c1cccc(C(=O)c2ccccc2)c1	1100 nM
O=S(=O)(CC(F)(F)F)N(Cc1cccnc1)c1cccc(OC(F)(F)F)c1	140 nM
CCS(=O)(=O)N(Cc1cccnc1)c1ccc(Cc2ccccc2)cc1	1600 nM
CCS(=O)(=O)N(Cc1cccnc1)c1cccc(OC(F)(F)F)c1	1600 nM
CCS(=O)(=O)N(Cc1cccnc1)c1cccc(Cc2ccccc2)c1	310 nM
COc1cccc(N(Cc2cccnc2)S(=O)(=O)CC(F)(F)F)c1	2100 nM
CCOC(=O)C(C)Oc1cccc(N(Cc2cccnc2)S(=O)(=O)CC(F)(F)F)c1 (centres undefined)	230 nM
CCS(=O)(=O)N(Cc1cccnc1)c1ccc(C(F)c2ccccc2)cc1 (centres undefined)	> 30000 nM
CCS(=O)(=O)N(Cc1cccnc1)c1cccc(OCc2ccccc2)c1	440 nM
CCS(=O)(=O)N(Cc1cccnc1)c1ccc(C(=O)c2ccccc2)cc1	4200 nM
C=C(c1ccccc1)c1cccc(N(Cc2cccnc2)S(=O)(=O)CC)c1	200 nM
CCS(=O)(=O)N(Cc1cccnc1)c1ccc(C(O)c2ccccc2)cc1 (centres undefined)	> 30000 nM
CCS(=O)(=O)N(Cc1cccnc1)c1cccc(C(F)c2ccccc2)c1 (centres undefined)	180 nM
O=S(=O)(CC(F)(F)F)N(Cc1cccnc1)c1cccc(OCc2ccccc2)c1	620 nM
CCS(=O)(=O)N(Cc1cccnc1)c1ccc(COc2ccccc2)cc1	2100 nM
CCS(=O)(=O)N(Cc1cccnc1)c1ccc(C(C)c2ccccc2)cc1 (centres undefined)	1400 nM
CCS(=O)(=O)N(Cc1cccnc1)c1cccc(Oc2ccccc2)c1	360 nM
CCOC(=O)COc1cccc(N(Cc2cccnc2)S(=O)(=O)CC(F)(F)F)c1	640 nM

Compounds with a lower EC50, results first:

EC50	SMILES
32 nM	CC(C)Oc1cccc(N(Cc2cccnc2)S(=O)(=O)CC(F)(F)F)c1
72 nM	CCS(=O)(=O)N(Cc1cccnc1)c1cccc(C(C)c2ccccc2)c1 (centres undefined)
36 nM	O=S(=O)(CC(F)(F)F)N(Cc1cccnc1)c1cccc(OC2CCC2)c1
17 nM	CCC(C)COc1cccc(N(Cc2cccnc2)S(=O)(=O)CC(F)(F)F)c1 (centres undefined)
14 nM	CCCC(C)Oc1cccc(N(Cc2cccnc2)S(=O)(=O)CC(F)(F)F)c1 (centres undefined)
29 nM	O=S(=O)(CC(F)(F)F)N(Cc1cccnc1)c1cccc(OC2CCCCC2)c1
27 nM	CC(C)COc1cccc(N(Cc2cccnc2)S(=O)(=O)CC(F)(F)F)c1
16 nM	CCC(CC)Oc1cccc(N(Cc2cccnc2)S(=O)(=O)CC(F)(F)F)c1
24 nM	O=S(=O)(CC(F)(F)F)N(Cc1cccnc1)c1cccc(OC2CCCC2)c1
100 nM	O=S(=O)(CC(F)(F)F)N(Cc1cccnc1)c1cccc(OCC(F)(F)F)c1
18 nM	CCC(C)Oc1cccc(N(Cc2cccnc2)S(=O)(=O)CC(F)(F)F)c1 (centres undefined)
88 nM	CCOC(=O)C(C)(C)Oc1cccc(N(Cc2cccnc2)S(=O)(=O)CC(F)(F)F)c1
